Source: ChEMBL document CHEMBL5104182, “Design and Synthesis of a 2-Amino-pyridine Derivative as a Potent CDK8 Inhibitor for Anti-colorectal Cancer Therapy” (J Med Chem, 2022)

Columns and labels:
[1] = Cytotoxicity against human GES1 cells assessed as cell viability incubated for 48 hrs by MTT assay; assay type: toxicity, cell-based
[2] = test system: HT-29; test: Antiproliferative activity against human HT-29 cells assessed as cell viability incubated for 48 hrs by MTT assay; assay type: functional
[3] = test system: HCT-116; test: Antiproliferative activity against human HCT-116 cells assessed as cell viability incubated for 48 hrs by MTT assay; assay type: functional
[4] = test system: SW480; test: Antiproliferative activity against human SW480 cells assessed as cell viability incubated for 48 hrs by MTT assay; assay type: functional
[5] = test system: CT26; test: Antiproliferative activity against […] cells assessed as cell viability incubated for 48 hrs by MTT assay; assay type: functional; settings: Mus musculus

Compound	GI50 at 48 h [1] [µM]	GI50 [2] [µM]	GI50 [3] [µM]	GI50 [4] [µM]	GI50 [5] [µM]
COc1cccc(NC(=O)Nc2ccc(Oc3ccc(N)nc3)cc2)c1	43.2	9	20.4	22.5	> 100
Nc1ccc(Oc2cccc(NC(=O)Nc3ccc(F)cc3)c2)cn1	> 100	> 100	> 100	10.9	52.3
O=C(Nc1ccc(Oc2cnc3[nH]ccc3c2)cc1)Nc1ccc(Cl)c(C(F)(F)F)c1		2.3		1.4	8.3
Cc1cccc(NC(=O)Nc2cccc(Oc3ccc(N)nc3)c2)c1	> 100	41.5	26.6	66.3	> 100
Nc1ccc(Oc2cccc(NC(=O)Nc3ccccc3F)c2)cn1	43.6	27.5	34.4	43	83.1
Nc1ccc(Oc2ccc(NC(=O)Nc3cccc(Cl)c3Cl)cc2)cn1	> 100	18.8	54.6	77.5	88.2
Nc1ccc(Oc2ccc(NC(=O)Nc3cccc(F)c3)cc2)cn1	> 100	49.9	70.9	45.2	66.7
Nc1ccc(Oc2cccc(NC(=O)Nc3cccc(Cl)c3)c2)cn1	> 100	36.1	29.7	44.2	70.4
Nc1ccc(Oc2cccc(NC(=O)Nc3cccc(C(F)(F)F)c3)c2)cn1	> 100	2.5	1.7	10.4	6.9
Nc1ccc(Oc2cccc(NC(=O)Nc3ccc(Cl)c(C(F)(F)F)c3)c2)cn1	10.2	8.1	9.5	9.1	5.2
O=C(Nc1cccc(Oc2cnc3[nH]ccc3c2)c1)Nc1ccc(Cl)c(C(F)(F)F)c1		100	53.2	100	> 100
Nc1ccc(Oc2cccc(NC(=O)Nc3ccc(Cl)c(Cl)c3)c2)cn1	> 100	30.3	7.6	29.2	32.4
Nc1ccc(Oc2ccc(NC(=O)Nc3ccc(Cl)c(C(F)(F)F)c3)cc2)cn1	26.8	3.4	15.7	3.9	12.9
CC(=O)Nc1ccc(Oc2ccc(NC(=O)Nc3cccc(C(F)(F)F)c3)cc2)cn1	28.2	8.6	1.8	18.4	42.7
CNC(=O)c1cc(Oc2ccc(NC(=O)Nc3ccc(Cl)c(C(F)(F)F)c3)cc2)ccn1 [SORAFENIB]	28.9	25.6	19.8	14.7	30.2
